What was measured:
Assay in all cases: relative viability (nuclei count vs DMSO), 5 days (fraction); higher = more cells survive
[1] = compound: CN(c1ncccc1CNc1nc(Nc2ccc3c(c2)CC(=O)N3)ncc1C(F)(F)F)S(C)(=O)=O + CC(=O)c1c(C)c2cnc(Nc3ccc(N4CCNCC4)cn3)nc2n(C2CCCC2)c1=O [Palbociclib] (partner 0.5 µM)
Outline: (§1)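 Nuclei were stained with Hoechst during a one-step fixation (final 0.05% Triton X-100, 1% formaldehyde, 1 ug/ml Hoechst) carried out 5 days after dosing, then counted on 4× images. The cells, lung cancer lines in 1536-well plates, had been dosed by pin tool the day after seeding with one drug alone or a fixed anchor-drug dose plus five library-drug doses (not always all listed) in √10 steps. Relative viability is the nuclei count in treated wells divided by that in vehicle wells, and each value is the median of duplicate plates.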

[2] = compound: CN(c1ncccc1CNc1nc(Nc2ccc3c(c2)CC(=O)N3)ncc1C(F)(F)F)S(C)(=O)=O + Cc1nc(NC(=O)N2CCC[C@H]2C(N)=O)sc1-c1ccnc(C(C)(C)C(F)(F)F)c1 [Alpelisib] (partner 2 µM)
Outline: as §1

[3] = compound: CN(c1ncccc1CNc1nc(Nc2ccc3c(c2)CC(=O)N3)ncc1C(F)(F)F)S(C)(=O)=O + Nc1nc2[nH]cc(CCc3ccc(C(=O)N[C@@H](CCC(=O)O)C(=O)O)cc3)c2c(=O)[nH]1 [Pemetrexed] (partner 0.2 µM)
Outline: as §1

[4] = compound: CN(c1ncccc1CNc1nc(Nc2ccc3c(c2)CC(=O)N3)ncc1C(F)(F)F)S(C)(=O)=O + O=C(c1cc(Cc2n[nH]c(=O)c3ccccc23)ccc1F)N1CCN(C(=O)C2CC2)CC1 [Olaparib] (partner 8 µM)
Outline: as §1

Row | Cell Line | relative viability ([1]; first compound 0.01 µM) | relative viability ([1]; first compound 0.03162 µM) | relative viability ([1]; first compound 0.1 µM) | relative viability ([1]; first compound 0.3162 µM) | relative viability ([1]; first compound 1 µM) | relative viability ([2]; first compound 0.01 µM) | relative viability ([2]; first compound 0.03162 µM) | relative viability ([2]; first compound 0.1 µM) | relative viability ([2]; first compound 0.3162 µM) | relative viability ([2]; first compound 1 µM) | relative viability ([3]; first compound 0.01 µM) | relative viability ([3]; first compound 0.03162 µM) | relative viability ([3]; first compound 0.1 µM) | relative viability ([3]; first compound 0.3162 µM) | relative viability ([3]; first compound 1 µM) | relative viability ([4]; first compound 0.01 µM) | relative viability ([4]; first compound 0.03162 µM) | relative viability ([4]; first compound 0.1 µM) | relative viability ([4]; first compound 0.3162 µM) | relative viability ([4]; first compound 1 µM)
1 | HCC-78 | 0.419 | 0.46 | 0.462 | 0.487 | 0.408 | 0.368 | 0.407 | 0.285 | 0.361 | 0.31 | 0.907 | 0.922 | 0.921 | 0.922 | 0.929 | 0.856 | 0.999 | 0.783 | 0.797 | 0.714
2 | HCC-366 | 0.41 | 0.391 | 0.342 | 0.336 | 0.316 | 0.35 | 0.471 | 0.455 | 0.389 | 0.309 | 0.219 | 0.172 | 0.164 | 0.172 | 0.186 | 0.351 | 0.376 | 0.347 | 0.292 | 0.352
3 | HCC-827 | 0.453 | 0.462 | 0.503 | 0.545 | 0.437 | 1.02 | 1.07 | 1.03 | 1.01 | 0.942 | 0.248 | 0.269 | 0.257 | 0.294 | 0.313 | 0.635 | 0.557 | 0.647 | 0.707 | 0.705
4 | HOP-62 | 0.469 | 0.444 | 0.374 | 0.412 | 0.39 | 0.909 | 1.25 | 1.06 | 0.84 | 0.772 | 0.34 | 0.337 | 0.289 | 0.418 | 0.28 | 0.526 | 0.421 | 0.326 | 0.363 | 0.384
5 | IA-LM |  |  |  |  |  | 0.631 | 0.884 | 0.637 | 0.649 | 0.688 |  |  |  |  |  | 0.758 | 0.959 | 0.802 |  | 0.66
6 | LC-2-ad | 0.523 | 0.451 | 0.522 | 0.473 | 0.463 | 0.789 | 0.714 | 0.883 | 0.902 | 0.877 | 0.283 | 0.3 | 0.274 | 0.285 | 0.274 | 0.732 | 0.703 | 0.703 | 0.664 | 0.596
7 | LCLC-97TM1 | 0.217 | 0.176 | 0.171 | 0.18 | 0.158 |  | 0.246 | 0.229 | 0.246 | 0.161 | 0.149 | 0.164 | 0.125 | 0.133 | 0.13 | 0.45 | 0.414 | 0.401 | 0.291 | 0.261
8 | LCLC-103H | 0.499 | 0.428 | 0.5 | 0.471 | 0.484 | 1.04 | 0.982 | 0.868 | 0.872 | 0.897 | 0.476 | 0.474 | 0.488 | 0.541 | 0.463 | 0.724 | 0.742 | 0.78 | 0.693 | 0.669
9 | LK-2 | 0.784 | 0.723 | 0.666 | 0.662 | 0.717 | 0.955 | 1.35 | 0.927 | 0.959 | 1.08 | 0.309 | 0.28 | 0.252 | 0.251 | 0.29 | 0.807 | 0.846 | 0.615 | 0.639 | 0.542
10 | LOU-NH91 | 0.521 | 0.512 | 0.534 | 0.52 | 0.492 | 0.75 | 0.792 | 0.703 | 0.771 | 0.762 | 0.423 | 0.368 | 0.375 | 0.382 | 0.338 | 0.888 | 0.92 | 0.883 | 0.972 | 0.858
11 | LU99A | 0.406 | 0.517 | 0.465 | 0.411 | 0.448 | 0.48 | 0.62 | 0.525 | 0.588 | 0.577 | 0.25 | 0.156 | 0.184 | 0.203 | 0.178 | 0.26 | 0.305 | 0.302 | 0.261 | 0.236
12 | NCI-H596 |  |  |  |  |  | 0.58 | 0.48 | 0.482 | 0.48 | 0.392 | 0.425 | 0.466 | 0.503 | 0.469 | 0.605 | 0.634 | 0.655 | 0.664 | 0.674 | 0.723
13 | NCI-H727 | 0.681 | 0.607 | 0.651 | 0.684 | 0.688 | 0.638 | 0.606 | 0.565 | 0.448 | 0.444 |  |  |  |  |  | 0.776 | 0.707 | 0.77 | 0.635 | 0.715
14 | NCI-H1299 |  |  |  |  |  | 1.05 | 1.02 | 1.01 | 1.04 | 1.05 |  |  |  |  |  | 0.96 | 1.04 | 0.991 | 0.948 | 0.955
15 | NCI-H1563 |  |  |  |  |  | 0.867 | 1.03 | 0.897 | 0.917 | 0.933 | 0.815 | 0.772 | 0.84 | 0.772 | 0.773 |  |  |  |  | 
16 | NCI-H1648 | 0.264 | 0.274 | 0.224 | 0.242 | 0.207 |  |  |  |  |  | 0.66 | 0.707 | 0.604 | 0.694 | 0.422 | 0.874 | 0.886 | 0.918 | 0.48 | 0.46
17 | NCI-H1650 | 0.291 | 0.31 | 0.367 | 0.321 | 0.304 |  |  |  |  |  | 0.379 | 0.321 | 0.432 | 0.384 | 0.318 | 0.753 | 0.783 | 0.784 | 0.672 | 0.675
18 | NCI-H1703 |  |  |  |  |  | 0.329 | 0.419 | 0.321 | 0.345 | 0.294 |  |  |  |  |  | 0.393 | 0.388 | 0.368 | 0.526 | 0.389
19 | NCI-H2342 | 0.564 | 0.536 | 0.548 | 0.497 | 0.455 |  |  |  |  |  | 0.775 | 0.885 | 0.801 | 0.789 | 0.757 | 0.494 | 0.503 | 0.471 | 0.352 | 0.398
20 | SW 900 | 0.513 | 0.48 | 0.52 | 0.52 | 0.456 |  |  |  |  |  | 0.49 | 0.459 | 0.477 | 0.484 | 0.51 | 0.867 | 1.09 | 1.01 | 0.722 | 0.718

From the supplement of paper PMC10307832
